Results from patent US5028609A, “Alkyl diamine derivatives” (Alkaloida Vegyeszeti Gyar, priority 1983, dated 1991).

Experiments:
[1] = system: arrhythmia in rats; experiment: arrhythmia test carried out in rats according to Zetler and Strubelt (ED125, ED150); format: in vivo; conditions: Rattus norvegicus, iv
Experimental: In cases of compounds having outstanding antiarrhythmic activity ED125 and ED150 values were calculated in arrhythmia test carried out in rats according to Zetler and Strubelt (Arzneim.-Forsch.) Drug.

[2] = system: aconitine arrhythmia on rats; experiment: preventive aconitine arrhythmia test on rats; format: in vivo, rats of Wistar strain; conditions: for arrhythmia appearance time: ± S.E., 30 min monitoring; for responders at 4 mg/kg: read-out: positive cases, 4.0 mg/kg i.v., 2 min before aconitine
Experimental: The antiarrhythmic activity of the compounds of the Formula I was compared in a preventive aconitine arrhythmia test on rats as follows:
rats of Wistar strain weighing 200 to 250 g. were narcotized i.p. with 1.25 g./kg. of urethane and their ECG was registered by a Hellige equipment by II standard limb head.
Arrhythmia was induced by an i.v. infusion of 30 /ug/kg. aconitine nitrate whereafter the ECG was continuously monitored for 30 minutes.
Those cases were considered positive, where within 30 minutes after the aconitine infusion not a single phase of the arrhythmia occurred.
In control animals pretreated i.v. with a 0.9% sodium chloride solution (0.1 ml./100 g.) (n=20) the arrhythmogenic activity of the aconitine nitrate appeared after 2.88±0.32 minutes.
Per cent values of the positive cases, average time of the appearance of the arrhythmia-when the induced arrhythmia appeared within 30 minutes and toxicity values are shown.

[3] = system: white mice; experiment: acute intravenous toxicity, method of Litchfield and Wilcoxon; format: in vivo; conditions: i.v.
Experimental: (§1) The acute intravenous (i.v.) toxicity values of the testcompounds was determined by the method of Litchfield and Wilcoxon and as test-animals white mice of both sexes were used (J. of Pharmacol. 1949, 96, 99.).

[4] = as above; format: in vivo; conditions: mouse, in vivo, iv, mice
Experimental: as §1

[5] = Rattus norvegicus, iv, 0.5 h, no arrhythmia within 30 min = positive

Compound | ED125 [1] | ED150 [1] | arrhythmia appearance time ([2]; 4.0 mg/kg i.v.) | responders at 4 mg/kg [2, 5] | LD50 [3] | also measured
CC1(C)C=C(C(=O)NCCCNCc2ccccc2)C(C)(C)N1 [I/38] | 2.2 mg/kg | 3.6 mg/kg | 27.5 min | 90% | 26 mg/kg | 
CC1(C)C=C(C(=O)NCCCN2C(=O)c3ccccc3C2=O)C(C)(C)N1 [I/60] | 1.4 mg/kg | 2.6 mg/kg |  |  | 23 mg/kg | arrhythmia appearance time ([2]; 2.3 mg/kg i.v.): 26.0 min; responders at 2.3 mg/kg ([2]; Rattus norvegicus, iv, 0.5 h, read-out: positive cases, 2.3 mg/kg i.v., 2 min before aconitine, no arrhythmia within 30 min = positive): 90%
CC1(C)C=C(C(=O)NCCN2C(=O)c3ccccc3C2=O)C(C)(C)N1 [I/59] | 4.2 mg/kg | 7.9 mg/kg |  |  | 55 mg/kg | arrhythmia appearance time ([2]; 5.5 mg/kg i.v.): 30 min; responders at 5.5 mg/kg ([2]; Rattus norvegicus, iv, 0.5 h, read-out: positive cases, 5.5 mg/kg i.v., 2 min before aconitine, no arrhythmia within 30 min = positive): 100%
CC=Cc1ccc(OCC(=O)NCCNC(=O)C2=CC(C)(C)NC2(C)C)c(OC)c1 [I/21] | 2.4 mg/kg | 4.1 mg/kg | > 30 min | 100% |  | LD50 [4]: 18 mg/kg
CC=Cc1ccc(OC(C)C(=O)NCCCNC(=O)C2=CC(C)(C)NC2(C)C)c(OC)c1 (stereo not drawn) [I/22] | 1.9 mg/kg | 2.7 mg/kg | > 30 min | 100% |  | LD50 [4]: 14 mg/kg
CC1(C)CC(C(=O)NCCCNCc2cccs2)C(C)(C)N1 (stereo not drawn) [I/50] | 2.7 mg/kg | 4.2 mg/kg |  |  | 43 mg/kg | arrhythmia appearance time ([2]; 4.3 mg/kg i.v.): 30 min; responders at 4.3 mg/kg ([2]; Rattus norvegicus, iv, 0.5 h, read-out: positive cases, 4.3 mg/kg i.v., 2 min before aconitine, no arrhythmia within 30 min = positive): 100%
CCc1nc2ccccc2c(=O)n1CCCNC(=O)C1=CC(C)(C)NC1(C)C [I/72] | 1.1 mg/kg | 1.7 mg/kg | 30 min | 100% | 13 mg/kg | 
CC1(C)CC(C(=O)NCCCNCc2ccc(C(F)(F)F)cc2)C(C)(C)N1 (stereo not drawn) [I/52] | 2.1 mg/kg | 2.9 mg/kg | 7.3 min | 90% | 39 mg/kg | 
CC1(C)CC(C(=O)NCCCNCc2ccsc2)C(C)(C)N1 (stereo not drawn) [I/54] | 6.9 mg/kg | 13.2 mg/kg | 5.2 ± 0.8 min | 70% | 19 mg/kg | 
CC1(C)CC(C(=O)NCCCN2C(=O)c3ccccc3C2=O)C(C)(C)N1 (stereo not drawn) [I/62] | 2.6 mg/kg | 4.5 mg/kg | 30 min | 100% | 22 mg/kg | 
CC1(C)C=C(C(=O)NCCCNCc2cccs2)C(C)(C)N1 [I/44] |  |  |  |  |  | responders at 6.5 mg/kg ([2]; Rattus norvegicus, iv, 0.5 h, read-out: positive cases, 6.5 mg/kg i.v., 2 min before aconitine, no arrhythmia within 30 min = positive): 100%
CC1(C)C=C(C(=O)NCCCNC(=O)Cc2cccs2)C(C)(C)N1 [I/19] | 2 mg/kg | 3.1 mg/kg |  |  | 71 mg/kg | arrhythmia appearance time ([2]; 7.0 mg/kg i.v.): 27.5 ± 2.5 min; responders at 7 mg/kg ([2]; Rattus norvegicus, iv, 0.5 h, read-out: positive cases, 7.0 mg/kg i.v., 2 min before aconitine, no arrhythmia within 30 min = positive): 80%
CCc1nc2ccccc2c(=O)n1CCCNC(=O)C1CC(C)(C)NC1(C)C (stereo not drawn) [I/74] | 1.9 mg/kg | 2.7 mg/kg | 30 min | 100% | 22 mg/kg | 
CC1(C)C=C(C(=O)NCCCCNCc2cccs2)C(C)(C)N1 [I/49] | 2.3 mg/kg | 4.7 mg/kg |  |  | 28 mg/kg | arrhythmia appearance time ([2]; 2.8 mg/kg i.v.): 10.0 min; responders at 2.8 mg/kg ([2]; Rattus norvegicus, iv, 0.5 h, read-out: positive cases, 2.8 mg/kg i.v., 2 min before aconitine, no arrhythmia within 30 min = positive): 90%
CC1(C)C=C(C(=O)NCCCNCc2ccsc2)C(C)(C)N1 [I/53] | 3.4 mg/kg | 5.5 mg/kg | 30 min | 100% | 28 mg/kg | 
Cc1nc2ccccc2c(=O)n1CCCNC(=O)C1=CC(C)(C)NC1(C)C [I/70, 2-Methyl-3-[3-(2,2,5,5-tetramethyl-3-pyrroline-3-carbonyl-amino)-propyl]-quinazoline-4(3H)-one] | 2.5 mg/kg | 4.5 mg/kg | 30 min | 100% | 31 mg/kg | 
CC1(C)C=C(C(=O)NCCCNC(=O)c2ccccc2C(=O)O)C(C)(C)N1 [I/68, N-(2,2,5,5-tetramethyl-3-pyrroline-3-carbonyl)-N'-(2-carboxybenzoyl)-1,3-diaminopropane] |  |  |  |  | 419 mg/kg | arrhythmia appearance time ([2]; 41.9 mg/kg i.v.): 4.6 ± 0.7 min; responders at 41.9 mg/kg ([2]; Rattus norvegicus, iv, 0.5 h, read-out: positive cases, 41.9 mg/kg i.v., 2 min before aconitine, no arrhythmia within 30 min = positive): 40%
C=CCc1cc(C)ccc1OCC(=O)NCCCNC(=O)C1=CC(C)(C)NC1(C)C [I/11] | 1.4 mg/kg | 2.4 mg/kg |  |  | 14 mg/kg | arrhythmia appearance time ([2]; 1.4 mg/kg i.v.): 20.1 ± 2.5 min; responders at 1.4 mg/kg ([2]; Rattus norvegicus, iv, 0.5 h, read-out: positive cases, 1.4 mg/kg i.v., 2 min before aconitine, no arrhythmia within 30 min = positive): 80%
CCN(CC)CCNC(=O)c1ccc(N)cc1 [procainamide, reference compound] | 11 mg/kg | 14 mg/kg |  |  |  | arrhythmia appearance time ([2]; 8.0 mg/kg i.v.): 9.5 ± 1.2 min; responders at 8 mg/kg ([2]; Rattus norvegicus, iv, 0.5 h, read-out: positive cases, 8.0 mg/kg i.v., 2 min before aconitine, no arrhythmia within 30 min = positive): 30%; LD50 [4]: 141 mg/kg
CC1(C)C=C(C(=O)NCCCN2C(=O)C3CC=CCC3C2=O)C(C)(C)N1 (stereo not drawn) [I/58] |  |  |  |  | 113 mg/kg | arrhythmia appearance time ([2]; 11.3 mg/kg i.v.): 13.1 ± 2.5 min; responders at 11.3 mg/kg ([2]; Rattus norvegicus, iv, 0.5 h, read-out: positive cases, 11.3 mg/kg i.v., 2 min before aconitine, no arrhythmia within 30 min = positive): 50%
CC1(C)C=C(C(=O)NCCCNC(=O)CSc2ccccc2)C(C)(C)N1 [I/12] | 4.6 mg/kg | 6.95 mg/kg | 28.5 min | 90% | 38 mg/kg | 
CC=Cc1ccc(OCC(=O)NCCCNC(=O)C2=CC(C)(C)NC2(C)C)c(OC)c1 [I/8] | 1.5 mg/kg | 2.2 mg/kg |  |  |  | arrhythmia appearance time ([2]; 3.0 mg/kg i.v.): > 30 min; responders at 3 mg/kg ([2]; Rattus norvegicus, iv, 0.5 h, read-out: positive cases, 3.0 mg/kg i.v., 2 min before aconitine, no arrhythmia within 30 min = positive): 100%; LD50 [4]: 30 mg/kg
C=CCc1ccc(OCC(=O)NCCCNC(=O)C2=CC(C)(C)NC2(C)C)c(OC)c1 [I/9, N-(2-methoxy-4-allyl)-phenoxy-acetyl-N'-(2,2,5,5-tetramethyl-3-pyrroline-3-carbonyl)-1,3-propylene-diamine] | 0.7 mg/kg | 1.4 mg/kg |  |  | 19 mg/kg | arrhythmia appearance time ([2]; 1.9 mg/kg i.v.): > 30 min; responders at 1.9 mg/kg ([2]; Rattus norvegicus, iv, 0.5 h, read-out: positive cases, 1.9 mg/kg i.v., 2 min before aconitine, no arrhythmia within 30 min = positive): 100%
CC1(C)C=C(C(=O)NCC(O)CN2C(=O)c3ccccc3C2=O)C(C)(C)N1 (stereo not drawn) [I/61] | 1.9 mg/kg | 3 mg/kg | 30 min | 100% | 28 mg/kg | 
CC1(C)C=C(C(=O)NCCNCc2cccs2)C(C)(C)N1 [I/36] | 4.5 mg/kg | 7.6 mg/kg | 15.9 ± 0.3 min | 70% |  | LD50 [4]: 49 mg/kg
CCc1nc2ccccc2c(=O)n1CCNC(=O)C1=CC(C)(C)NC1(C)C [I/71] | 3.8 mg/kg | 10.5 mg/kg | 30 min | 100% | 48 mg/kg | 
C=C[C@H]1C[N@@]2CC[C@H]1C[C@@H]2[C@@H](O)c1ccnc2ccc(OC)cc12 [quinidine, reference compound] | 7.8 mg/kg | 10.8 mg/kg |  |  |  | arrhythmia appearance time ([2]; 9.5 mg/kg i.v.): 10.0 ± 0.4 min; responders at 9.5 mg/kg ([2]; Rattus norvegicus, iv, 0.5 h, read-out: positive cases, 9.5 mg/kg i.v., 2 min before aconitine, no arrhythmia within 30 min = positive): 70%; LD50 [4]: 95 mg/kg
COc1cc(C(=O)NCCCNC(=O)C2=CC(C)(C)NC2(C)C)cc(OC)c1OC [I/2] | 7.6 mg/kg | 12.3 mg/kg |  |  | 119 mg/kg | arrhythmia appearance time ([2]; 12.0 mg/kg i.v.): 16.7 ± 1.7 min; responders at 12 mg/kg ([2]; Rattus norvegicus, iv, 0.5 h, read-out: positive cases, 12.0 mg/kg i.v., 2 min before aconitine, no arrhythmia within 30 min = positive): 70%
